Data taken from publication PMC9851200, “Multiparameter phenotypic screening for endogenous TFEB and TFE3 translocation identifies novel chemical series modulating lysosome function” (Autophagy, 2022).
Read-outs that look alike come from different tables or passages of the source.

Assays:
Experiment in all cases: biochemical
Format in all cases: binding
[1] = molecular target: cellular kinases of SH-SY5Y cells (Homo sapiens, UniProt O14965); conditions: 2µM, SH-SY5Y cells, read-out: KiNativ in-cell binding, % Inhibition, AURKA/AurA
Chain of cellular kinases of SH-SY5Y cells (Homo sapiens, UniProt O14965) (O14965 whole entry): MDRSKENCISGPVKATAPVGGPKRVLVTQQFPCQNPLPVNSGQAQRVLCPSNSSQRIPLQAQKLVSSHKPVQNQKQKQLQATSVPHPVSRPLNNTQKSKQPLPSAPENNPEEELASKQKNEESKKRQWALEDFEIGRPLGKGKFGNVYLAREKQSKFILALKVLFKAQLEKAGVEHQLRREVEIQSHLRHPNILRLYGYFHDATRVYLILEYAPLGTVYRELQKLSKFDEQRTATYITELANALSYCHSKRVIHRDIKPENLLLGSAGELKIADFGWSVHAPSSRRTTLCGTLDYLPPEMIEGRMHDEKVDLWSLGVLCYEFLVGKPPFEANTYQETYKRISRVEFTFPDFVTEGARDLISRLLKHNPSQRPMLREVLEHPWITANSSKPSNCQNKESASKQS
Text: (§1) As KINOMEscan is an in vitro assay, and as different cell types have variable kinase expression profiles we sought to determine the kinase binding profile in our SH-SY5Y TFEB-relocalization cell model. […] Bound kinases were pulled down and analyzed by mass spectrometry to determine the in situ kinase binding profile for each compound.

[2] = molecular target: cellular kinases of SH-SY5Y cells (Homo sapiens, UniProt P06493); conditions: 2µM; SH-SY5Y cells; Labeling Site Lys2; DLKPQNLLIDDK; read-out: KiNativ in-cell binding, % Inhibition, CDK1/CDC2
Text: as §1

[3] = molecular target: cellular kinases of SH-SY5Y cells (Homo sapiens, UniProt P24941); conditions: 2µM, SH-SY5Y cells
Text: as §1

[4] = molecular target: cellular kinases of SH-SY5Y cells (Homo sapiens, UniProt P42345); conditions: 2µM; SH-SY5Y cells; Labeling Site ATP; IQSIAPSLQVITSKQRPR; read-out: KiNativ in-cell binding, % Inhibition, MTOR
Text: as §1

[5] = molecular target: cellular kinases of SH-SY5Y cells (Homo sapiens, UniProt P50613); conditions: 2µM; SH-SY5Y cells; Labeling Site Lys2; DLKPNNLLLDENGVLK; read-out: KiNativ in-cell binding, % Inhibition, CDK7
Text: as §1

[6] = molecular target: cellular kinases of SH-SY5Y cells (Homo sapiens, UniProt P53350); conditions: 2µM, SH-SY5Y cells, read-out: KiNativ in-cell binding, % Inhibition, PLK1
Chain of cellular kinases of SH-SY5Y cells (Homo sapiens, UniProt P53350) (P53350 whole entry): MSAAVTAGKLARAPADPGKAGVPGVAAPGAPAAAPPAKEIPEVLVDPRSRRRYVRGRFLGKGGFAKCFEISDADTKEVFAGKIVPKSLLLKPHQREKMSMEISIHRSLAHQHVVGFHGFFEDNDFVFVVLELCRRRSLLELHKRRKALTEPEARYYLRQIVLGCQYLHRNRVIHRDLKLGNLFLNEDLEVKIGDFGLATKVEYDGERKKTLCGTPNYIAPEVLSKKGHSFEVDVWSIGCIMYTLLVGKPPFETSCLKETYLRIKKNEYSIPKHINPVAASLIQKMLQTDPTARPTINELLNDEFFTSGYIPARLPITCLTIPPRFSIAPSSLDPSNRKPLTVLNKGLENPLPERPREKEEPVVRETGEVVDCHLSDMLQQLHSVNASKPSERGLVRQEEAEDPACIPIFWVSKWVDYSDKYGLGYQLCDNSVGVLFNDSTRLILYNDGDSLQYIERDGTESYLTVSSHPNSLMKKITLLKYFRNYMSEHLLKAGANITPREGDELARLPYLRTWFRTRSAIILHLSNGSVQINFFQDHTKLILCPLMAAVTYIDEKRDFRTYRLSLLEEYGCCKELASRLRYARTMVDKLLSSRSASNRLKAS
Text: as §1

[7] = molecular target: cellular kinases of SH-SY5Y cells (Homo sapiens, UniProt Q00535); conditions: 2µM, SH-SY5Y cells, read-out: KiNativ in-cell binding, % Inhibition, CDK5
Chain of cellular kinases of SH-SY5Y cells (Homo sapiens, UniProt Q00535) (Q00535 whole entry): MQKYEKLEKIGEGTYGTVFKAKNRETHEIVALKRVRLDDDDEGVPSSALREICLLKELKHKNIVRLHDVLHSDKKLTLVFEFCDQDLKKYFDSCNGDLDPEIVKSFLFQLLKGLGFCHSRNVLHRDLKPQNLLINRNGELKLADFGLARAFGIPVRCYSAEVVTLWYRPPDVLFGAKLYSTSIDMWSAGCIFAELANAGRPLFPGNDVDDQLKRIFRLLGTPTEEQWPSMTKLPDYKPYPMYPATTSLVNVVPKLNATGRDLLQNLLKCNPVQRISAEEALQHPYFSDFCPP
Text: as §1

[8] = molecular target: cellular kinases of SH-SY5Y cells (Homo sapiens, UniProt Q13464); conditions: 2µM; SH-SY5Y cells; Labeling Site Other; KLQLELNQER; read-out: KiNativ in-cell binding, % Inhibition, ROCK1
Text: as §1

[9] = molecular target: T1, cellular kinases of SH-SY5Y cells (Homo sapiens, UniProt Q15831); conditions: 2µM; SH-SY5Y cells; Labeling Site Lys2; DIKPGNLLLTTGGTLK; read-out: KiNativ in-cell binding, % Inhibition, STK11/LKB1
T1 construct: endogenous in cells; host or cells: SH-SY5Y
Text: as §1

[10] = molecular target: cellular kinases of SH-SY5Y cells (Homo sapiens, UniProt Q16512); conditions: 2µM; SH-SY5Y cells; Labeling Site Lys1; VLLSEFRPSGELFAIKALK; read-out: KiNativ in-cell binding, % Inhibition, PKN1
Text: as §1

[11] = molecular target: T2, cellular kinases of SH-SY5Y cells (Homo sapiens, UniProt Q16513); conditions: 2µM; SH-SY5Y cells; labeling site Lys2; peptide DLKLDNLLLDTEGFVK
T2 construct: endogenous in cells; host or cells: SH-SY5Y
Text: as §1

[12] = molecular target: T3, cellular kinases of SH-SY5Y cells (Homo sapiens, UniProt Q52WX2); conditions: 2µM; SH-SY5Y cells; Labeling Site Lys2; DIKPENVLLFDR; read-out: KiNativ in-cell binding, % Inhibition, SBK1/SBK
T3 construct: endogenous in cells; host or cells: SH-SY5Y
Text: as §1

[13] = molecular target: T4, cellular kinases of SH-SY5Y cells (Homo sapiens, UniProt Q7RTN6); conditions: 2µM; SH-SY5Y cells; Labeling Site Activation Loop; YSVKVLPWLSPEVLQQNLQGYDAK; read-out: KiNativ in-cell binding, % Inhibition, STRADA
T4 construct: endogenous in cells; host or cells: SH-SY5Y
Text: as §1

[14] = molecular target: cellular kinases of SH-SY5Y cells (Homo sapiens, UniProt Q8NEB9); conditions: 2µM, SH-SY5Y cells
Chain of cellular kinases of SH-SY5Y cells (Homo sapiens, UniProt Q8NEB9) (Q8NEB9 whole entry): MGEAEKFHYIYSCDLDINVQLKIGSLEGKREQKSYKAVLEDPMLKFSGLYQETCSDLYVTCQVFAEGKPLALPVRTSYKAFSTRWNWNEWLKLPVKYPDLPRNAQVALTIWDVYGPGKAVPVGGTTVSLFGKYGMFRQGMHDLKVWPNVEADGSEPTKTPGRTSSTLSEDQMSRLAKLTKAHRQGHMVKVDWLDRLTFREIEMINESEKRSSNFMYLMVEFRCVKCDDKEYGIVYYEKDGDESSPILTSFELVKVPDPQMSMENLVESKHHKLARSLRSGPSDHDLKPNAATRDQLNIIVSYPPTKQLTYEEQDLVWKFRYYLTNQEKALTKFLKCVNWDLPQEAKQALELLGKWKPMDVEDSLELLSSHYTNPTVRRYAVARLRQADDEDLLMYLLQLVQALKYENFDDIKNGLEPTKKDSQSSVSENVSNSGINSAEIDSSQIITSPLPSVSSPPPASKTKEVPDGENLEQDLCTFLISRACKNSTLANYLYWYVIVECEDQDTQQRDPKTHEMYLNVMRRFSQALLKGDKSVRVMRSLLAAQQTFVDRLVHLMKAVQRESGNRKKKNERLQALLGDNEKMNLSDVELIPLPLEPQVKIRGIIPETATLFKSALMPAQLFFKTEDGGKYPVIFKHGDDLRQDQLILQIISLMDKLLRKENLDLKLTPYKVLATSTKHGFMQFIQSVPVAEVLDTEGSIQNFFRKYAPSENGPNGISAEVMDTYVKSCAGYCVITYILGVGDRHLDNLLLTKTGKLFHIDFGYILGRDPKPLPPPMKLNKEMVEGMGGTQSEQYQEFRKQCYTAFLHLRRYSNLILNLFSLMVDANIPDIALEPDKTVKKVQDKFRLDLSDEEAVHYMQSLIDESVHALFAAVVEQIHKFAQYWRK
Text: as §1

[15] = molecular target: T5, cellular kinases of SH-SY5Y cells (Homo sapiens, UniProt Q8TCG2); conditions: 2µM; SH-SY5Y cells; labeling site ATP; peptide SEEPYGQLNPKWTK
T5 construct: endogenous in cells; host or cells: SH-SY5Y
Text: as §1

[16] = molecular target: T6, cellular kinases of SH-SY5Y cells (Homo sapiens, UniProt Q9BYT3); conditions: 2µM; SH-SY5Y cells; Labeling Site Lys2; DLKLENIMVK; read-out: KiNativ in-cell binding, % Inhibition, STK33
T6 construct: endogenous in cells; host or cells: SH-SY5Y
Text: as §1

[17] = molecular target: T7, cellular kinases of SH-SY5Y cells (Homo sapiens, UniProt Q9H2G2); conditions: 2µM, SH-SY5Y cells
T7 construct: endogenous in cells; host or cells: SH-SY5Y
T7 sequence (Q9H2G2 whole entry): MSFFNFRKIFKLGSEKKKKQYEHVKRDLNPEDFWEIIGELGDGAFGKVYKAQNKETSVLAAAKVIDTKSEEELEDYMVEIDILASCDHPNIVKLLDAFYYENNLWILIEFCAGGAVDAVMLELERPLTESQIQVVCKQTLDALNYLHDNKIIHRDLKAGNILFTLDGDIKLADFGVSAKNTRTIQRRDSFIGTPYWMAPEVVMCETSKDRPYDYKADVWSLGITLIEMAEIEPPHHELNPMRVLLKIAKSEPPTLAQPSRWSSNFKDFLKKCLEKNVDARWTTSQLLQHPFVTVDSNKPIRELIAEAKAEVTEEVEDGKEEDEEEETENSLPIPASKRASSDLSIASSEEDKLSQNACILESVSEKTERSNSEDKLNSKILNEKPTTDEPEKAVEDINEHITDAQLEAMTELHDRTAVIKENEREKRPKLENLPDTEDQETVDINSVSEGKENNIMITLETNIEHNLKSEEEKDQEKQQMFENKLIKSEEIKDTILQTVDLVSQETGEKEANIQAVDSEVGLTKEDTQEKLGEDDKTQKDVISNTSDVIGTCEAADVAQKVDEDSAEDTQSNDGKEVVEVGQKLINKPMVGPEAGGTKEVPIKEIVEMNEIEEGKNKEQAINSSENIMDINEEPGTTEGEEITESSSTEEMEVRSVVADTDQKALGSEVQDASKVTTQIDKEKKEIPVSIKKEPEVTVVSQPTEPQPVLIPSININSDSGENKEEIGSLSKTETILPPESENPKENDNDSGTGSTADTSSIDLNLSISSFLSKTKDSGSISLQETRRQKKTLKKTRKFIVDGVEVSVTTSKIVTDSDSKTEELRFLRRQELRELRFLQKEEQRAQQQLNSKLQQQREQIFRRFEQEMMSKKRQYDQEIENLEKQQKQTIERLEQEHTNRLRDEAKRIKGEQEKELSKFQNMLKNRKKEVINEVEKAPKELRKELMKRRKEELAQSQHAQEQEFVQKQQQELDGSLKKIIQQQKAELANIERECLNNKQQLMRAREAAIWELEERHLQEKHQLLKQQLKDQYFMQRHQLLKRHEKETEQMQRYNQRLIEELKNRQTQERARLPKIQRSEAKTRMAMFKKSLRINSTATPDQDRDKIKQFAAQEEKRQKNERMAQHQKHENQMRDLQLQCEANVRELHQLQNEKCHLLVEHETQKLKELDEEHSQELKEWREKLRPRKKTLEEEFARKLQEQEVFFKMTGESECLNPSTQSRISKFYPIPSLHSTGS
Text: as §1

[18] = molecular target: T8, cellular kinases of SH-SY5Y cells (Homo sapiens, UniProt Q9NRH2); conditions: 2µM, SH-SY5Y cells, read-out: KiNativ in-cell binding, % Inhibition, SNRK
T8 construct: endogenous in cells; host or cells: SH-SY5Y
T8 sequence (Q9NRH2 whole entry): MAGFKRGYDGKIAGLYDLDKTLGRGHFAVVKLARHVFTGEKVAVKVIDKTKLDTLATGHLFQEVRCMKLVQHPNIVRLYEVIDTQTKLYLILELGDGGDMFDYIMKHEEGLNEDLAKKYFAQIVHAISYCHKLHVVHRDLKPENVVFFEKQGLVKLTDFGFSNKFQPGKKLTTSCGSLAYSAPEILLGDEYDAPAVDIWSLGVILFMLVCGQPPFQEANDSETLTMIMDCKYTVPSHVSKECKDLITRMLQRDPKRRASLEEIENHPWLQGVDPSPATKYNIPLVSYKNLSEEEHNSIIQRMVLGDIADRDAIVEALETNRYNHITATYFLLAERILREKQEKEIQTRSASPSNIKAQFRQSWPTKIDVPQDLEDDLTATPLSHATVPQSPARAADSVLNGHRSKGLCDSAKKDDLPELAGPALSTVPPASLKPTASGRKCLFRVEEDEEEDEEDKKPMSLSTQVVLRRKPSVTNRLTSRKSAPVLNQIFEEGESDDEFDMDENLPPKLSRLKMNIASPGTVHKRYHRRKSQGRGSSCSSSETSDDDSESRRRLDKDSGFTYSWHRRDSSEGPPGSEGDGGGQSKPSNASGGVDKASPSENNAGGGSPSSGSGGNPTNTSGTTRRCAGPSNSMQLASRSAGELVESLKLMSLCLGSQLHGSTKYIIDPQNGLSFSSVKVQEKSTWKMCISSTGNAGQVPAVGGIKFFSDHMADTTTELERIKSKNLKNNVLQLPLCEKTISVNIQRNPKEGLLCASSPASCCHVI
Text: as §1

[19] = molecular target: T9, cellular kinases of SH-SY5Y cells (Homo sapiens, UniProt Q9UBF8); conditions: 2µM, SH-SY5Y cells, Labeling Site ATP, read-out: KiNativ in-cell binding, % Inhibition, PI4KB
T9 construct: endogenous in cells; host or cells: SH-SY5Y
T9 sequence (Q9UBF8 whole entry): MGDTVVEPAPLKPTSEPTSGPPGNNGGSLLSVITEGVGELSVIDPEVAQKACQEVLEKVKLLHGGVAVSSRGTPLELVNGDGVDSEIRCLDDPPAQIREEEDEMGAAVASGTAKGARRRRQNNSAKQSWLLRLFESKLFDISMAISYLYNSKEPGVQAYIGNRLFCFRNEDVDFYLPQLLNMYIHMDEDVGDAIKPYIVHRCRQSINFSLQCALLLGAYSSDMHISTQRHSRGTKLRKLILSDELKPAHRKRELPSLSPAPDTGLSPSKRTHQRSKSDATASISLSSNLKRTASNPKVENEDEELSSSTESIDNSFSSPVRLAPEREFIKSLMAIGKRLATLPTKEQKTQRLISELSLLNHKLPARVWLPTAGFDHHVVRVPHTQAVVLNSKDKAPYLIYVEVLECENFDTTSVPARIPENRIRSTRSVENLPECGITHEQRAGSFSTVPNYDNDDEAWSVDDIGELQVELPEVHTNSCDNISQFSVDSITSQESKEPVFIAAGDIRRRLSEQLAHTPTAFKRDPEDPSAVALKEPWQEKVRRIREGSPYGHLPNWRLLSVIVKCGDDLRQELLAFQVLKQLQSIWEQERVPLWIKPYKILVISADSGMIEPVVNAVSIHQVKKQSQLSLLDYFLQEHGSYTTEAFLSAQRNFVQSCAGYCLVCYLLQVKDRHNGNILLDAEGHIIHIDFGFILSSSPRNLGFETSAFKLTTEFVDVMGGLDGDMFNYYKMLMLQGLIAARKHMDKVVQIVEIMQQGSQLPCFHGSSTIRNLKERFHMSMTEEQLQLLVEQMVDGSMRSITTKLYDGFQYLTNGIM
Text: as §1

Cc1cccc(-c2nc(Nc3ccc4ncsc4c3)c3ccccc3n2)n1 [NK140]
inhibition at 2 µM ([1]; Labeling Site Lys1, FILALKVLFK): 8.2% | inhibition at 2 µM ([1]; Labeling Site Lys2, DIKPENLLLGSAGELK): 18% | inhibition at 2 µM [2]: -2.3% | inhibition at 2 µM ([3]; Labeling Site Lys1, LTGEVVALKK, read-out: KiNativ in-cell binding, % Inhibition, CDK2): 21.6% | KiNativ in-cell binding, CDK2 ([3]; labeling site Lys2, peptide DLKPQNLLINTEGAIK): 6.0 | inhibition at 2 µM [4]: 18.4% | inhibition at 2 µM [5]: 56.5% | inhibition at 2 µM ([6]; Labeling Site Lys1, CFEISDADTKEVFAGKIVPK): 26% | inhibition at 2 µM ([6]; Labeling Site Lys2, DLKLGNLFLNEDLEVK): 9% | inhibition at 2 µM ([7]; Labeling Site Lys1, NRETHEIVALKR): -44.9% | inhibition at 2 µM ([7]; Labeling Site Lys2, DLKPQNLLINR): -39% | inhibition at 2 µM [8]: 1.3% | inhibition at 2 µM [9]: 58% | inhibition at 2 µM [10]: 3% | KiNativ in-cell binding, PKN2 [11]: -28.2 | inhibition at 2 µM [12]: 3.5% | inhibition at 2 µM [13]: 48.6% | inhibition at 2 µM ([14]; Labeling Site ATP, TEDGGKYPVIFKHGDDLRQDQLILQIISLMDK, read-out: KiNativ in-cell binding, % Inhibition, PIK3C3): -69% | KiNativ in-cell binding, PIK3C3 ([14]; labeling site ATP, peptide TEDGGKYPVIFKHGDDLR): -30.4 | KiNativ in-cell binding, PI4K2B [15]: 11.9 | inhibition at 2 µM [16]: -1.4% | inhibition at 2 µM ([17]; Labeling Site Lys1, AQNKETSVLAAAKVIDTK, read-out: KiNativ in-cell binding, % Inhibition, SLK (SLK OR FYN/SLK)): 16.4% | inhibition at 2 µM ([17]; Labeling Site Lys2, DLKAGNILFTLDGDIK, read-out: KiNativ in-cell binding, % Inhibition, SLK): 26.7% | inhibition at 2 µM ([18]; Labeling Site Lys1, VAVKVIDK): 37.3% | inhibition at 2 µM ([18]; Labeling Site Lys2, DLKPENVVFFEK): 36.3% | inhibition at 2 µM ([19]; LLSVIVKCGDDLRQELLAFQVLK): 29.7% | inhibition at 2 µM ([19]; VPHTQAVVLNSKDK): 32.3%
